Source: PubChem BioAssay (NCI)
Values joined by “and” are separate entries in the source; they are usually repeats but may differ in a detail not shown here. Identical values can stand only once.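 Five concentrations, 48 hours, 96-well plates. At the GI50, growth is halved. Definition used: TGI = concentration required for complete inhibition of growth.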

Key:
Assay in all cases: NCI anticancer screen, dose series, 48 h
HL-60(TB) leukemia = test system: HL-60(TB) leukemia
SK-MEL-5 melanoma = test system: SK-MEL-5 melanoma
BT-549 breast = test system: BT-549 breast
CAKI-1 renal = test system: CAKI-1 renal
PC-3 prostate = test system: PC-3 prostate
SK-OV-3 ovarian = test system: SK-OV-3 ovarian
SN12C renal = test system: SN12C renal
NCI-H226 lung = test system: NCI-H226 lung
KM12 colon = test system: KM12 colon
MCF7 breast = test system: MCF7 breast
T-47D breast = test system: T-47D breast
SK-MEL-28 melanoma = test system: SK-MEL-28 melanoma
K-562 leukemia = test system: K-562 leukemia
UO-31 renal = test system: UO-31 renal
786-0 renal = test system: 786-0 renal
OVCAR-8 ovarian = test system: OVCAR-8 ovarian
HS 578T breast = test system: HS 578T breast
IGROV1 ovarian = test system: IGROV1 ovarian
SNB-19 CNS = test system: SNB-19 CNS
MALME-3M melanoma = test system: MALME-3M melanoma
RPMI-8226 leukemia = test system: RPMI-8226 leukemia
SF-268 CNS = test system: SF-268 CNS
LOX IMVI melanoma = test system: LOX IMVI melanoma
HOP-62 NSCLC = test system: HOP-62 NSCLC
U251 CNS = test system: U251 CNS
EKVX NSCLC = test system: EKVX NSCLC
NCI/ADR-RES ovarian = test system: NCI/ADR-RES ovarian
SF-295 CNS = test system: SF-295 CNS
SF-539 CNS = test system: SF-539 CNS
MOLT-4 leukemia = test system: MOLT-4 leukemia
UACC-257 melanoma = test system: UACC-257 melanoma
OVCAR-3 ovarian = test system: OVCAR-3 ovarian
OVCAR-5 ovarian = test system: OVCAR-5 ovarian
HOP-92 NSCLC = test system: HOP-92 NSCLC
SNB-75 CNS = test system: SNB-75 CNS
SW-620 colon = test system: SW-620 colon
MDA-MB-435 = test system: MDA-MB-435
HCT-116 colon = test system: HCT-116 colon
DU-145 prostate = test system: DU-145 prostate
HCT-15 colon = test system: HCT-15 colon
ACHN renal = test system: ACHN renal
UACC-62 melanoma = test system: UACC-62 melanoma
MDA-MB-231 breast = test system: MDA-MB-231 breast
RXF 393 renal = test system: RXF 393 renal
A498 renal = test system: A498 renal
TK-10 renal = test system: TK-10 renal
SK-MEL-2 melanoma = test system: SK-MEL-2 melanoma
OVCAR-4 ovarian = test system: OVCAR-4 ovarian
CCRF-CEM leukemia = test system: CCRF-CEM leukemia
NCI-H522 lung = test system: NCI-H522 lung
HT29 colon = test system: HT29 colon
M14 melanoma = test system: M14 melanoma
COLO 205 colon = test system: COLO 205 colon
A549 NSCLC = test system: A549 NSCLC
NCI-H23 lung = test system: NCI-H23 lung
NCI-H460 lung = test system: NCI-H460 lung
HCC-2998 colon = test system: HCC-2998 colon

`O=c1cc(-c2ccccc2)[nH]c2ccc(N3CCCC3)cc12` was tested, and the TGI (HL-60(TB) leukemia) was less than 0.0347 µM, the TGI (SK-MEL-5 melanoma) was 2.16 µM and the TGI (BT-549 breast) was greater than 100 µM. The TGI (CAKI-1 renal) was greater than 100 µM, the TGI (PC-3 prostate) was greater than 100 µM and the TGI (SK-OV-3 ovarian) was greater than 100 µM. The TGI (SN12C renal) was greater than 100 µM, the TGI (NCI-H226 lung) was 0.0761 µM and the TGI (KM12 colon) was 0.198 µM. The TGI (MCF7 breast) was greater than 100 µM, the TGI (T-47D breast) was greater than 100 µM and the TGI (SK-MEL-28 melanoma) was greater than 100 µM. It also gave a TGI (K-562 leukemia) greater than 100 µM, a TGI (UO-31 renal) greater than 100 µM and a TGI (786-0 renal) greater than 52.4 µM. It also gave a TGI (OVCAR-8 ovarian) greater than 57.9 µM, a TGI (HS 578T breast) greater than 100 µM and a TGI (IGROV1 ovarian) greater than 100 µM. For the same compound, the TGI (SNB-19 CNS) was greater than 100 µM, the TGI (MALME-3M melanoma) was greater than 100 µM and the TGI (RPMI-8226 leukemia) was greater than 100 µM. The TGI (SF-268 CNS) was greater than 100 µM, the TGI (LOX IMVI melanoma) was greater than 100 µM and the TGI (HOP-62 NSCLC) was greater than 74.2 µM. The TGI (U251 CNS) was greater than 46.9 µM, the TGI (EKVX NSCLC) was greater than 100 µM and the TGI (NCI/ADR-RES ovarian) was greater than 100 µM. For the same compound, the TGI (SF-295 CNS) was 0.0201 µM, the TGI (SF-539 CNS) was 0.0703 µM and the TGI (MOLT-4 leukemia) was greater than 100 µM. For the same compound, the TGI (UACC-257 melanoma) was greater than 100 µM, the TGI (OVCAR-3 ovarian) was 26.1 µM and the TGI (OVCAR-5 ovarian) was greater than 100 µM. It also gave a TGI (HOP-92 NSCLC) greater than 100 µM, a TGI (SNB-75 CNS) greater than 100 µM and a TGI (SW-620 colon) greater than 100 µM. The TGI (MDA-MB-435) was less than 0.0114 µM, the TGI (HCT-116 colon) was greater than 34.8 µM and the TGI (DU-145 prostate) was greater than 100 µM. For the same compound, the TGI (HCT-15 colon) was greater than 100 µM, the TGI (ACHN renal) was greater than 100 µM and the TGI (UACC-62 melanoma) was 85.2 µM. The TGI (MDA-MB-231 breast) was greater than 100 µM, the TGI (RXF 393 renal) was greater than 100 µM and the TGI (A498 renal) was greater than 100 µM. The TGI (TK-10 renal) was greater than 100 µM and the TGI (SK-MEL-2 melanoma) was greater than 100 µM.

Work on `C#CC(F)(F)[C@]1(O)CC[C@H]2[C@@H]3CCC4=CC(=O)CCC4=C3[C@@H](c3ccc(C4CC4)cc3)C[C@@]21C` yielded a GI50 (OVCAR-4 ovarian) of 1.01 µM, a TGI (OVCAR-4 ovarian) greater than 100 µM and a GI50 (HL-60(TB) leukemia) of less than 0.01 µM. The TGI (HL-60(TB) leukemia) was 0.0216 µM and < 0.01 µM, the GI50 (SK-MEL-5 melanoma) was 4.05 µM and 3.05 µM and the TGI (SK-MEL-5 melanoma) was 10.7 µM and 8.41 µM. The GI50 (BT-549 breast) was 1.16 µM and 1.28 µM, the TGI (BT-549 breast) was 2.94 µM and 3.57 µM and the GI50 (CAKI-1 renal) was 0.103 µM and < 0.0171 µM. The TGI (CAKI-1 renal) was 0.633 µM and 0.0745 µM, the GI50 (PC-3 prostate) was 0.0441 µM and 0.414 µM and the TGI (PC-3 prostate) was 0.313 µM and 2.74 µM. The GI50 (SK-OV-3 ovarian) was 0.162 µM and 0.0695 µM, the TGI (SK-OV-3 ovarian) was 0.312 µM and 0.215 µM and the GI50 (SN12C renal) was 0.933 µM and 2.45 µM. For the same compound, the TGI (SN12C renal) was 8.69 µM and 10.5 µM, the GI50 (NCI-H226 lung) was 7.79 µM and 3.15 µM and the TGI (NCI-H226 lung) was 72.9 µM and 11.5 µM. For the same compound, the GI50 (KM12 colon) was 0.0214 µM and < 0.0177 µM, the GI50 (MCF7 breast) was 1.56 µM and 1.16 µM and the TGI (MCF7 breast) was greater than 100 µM. The GI50 (T-47D breast) was less than 0.01 µM, the TGI (T-47D breast) was 59 µM and 8.4 µM and the GI50 (SK-MEL-28 melanoma) was 5.33 µM and 2.31 µM. The TGI (SK-MEL-28 melanoma) was 17.9 µM and 5.96 µM, the GI50 (CCRF-CEM leukemia) was 0.017 µM and < 0.01 µM and the TGI (CCRF-CEM leukemia) was 0.043 µM and < 0.0139 µM. For the same compound, the GI50 (K-562 leukemia) was 0.815 µM and 2.21 µM, the TGI (K-562 leukemia) was 11.7 µM and > 100 µM and the GI50 (UO-31 renal) was less than 0.01 µM. The TGI (UO-31 renal) was less than 0.01 µM, the GI50 (786-0 renal) was less than 0.01 µM and the TGI (786-0 renal) was less than 0.0106 µM. For the same compound, the GI50 (HS 578T breast) was 0.205 µM and 1.32 µM, the TGI (HS 578T breast) was 2.63 µM and 7.34 µM and the GI50 (NCI-H522 lung) was less than 0.01 µM. The TGI (NCI-H522 lung) was 0.0174 µM and < 0.01 µM, the GI50 (IGROV1 ovarian) was less than 0.0114 µM and the TGI (IGROV1 ovarian) was less than 0.0155 µM. The GI50 (SNB-19 CNS) was 1.44 µM and 3.91 µM, the GI50 (MALME-3M melanoma) was 0.0436 µM and < 0.0151 µM and the TGI (MALME-3M melanoma) was 0.0946 µM and < 0.028 µM. For the same compound, the GI50 (HT29 colon) was 0.0428 µM and < 0.02 µM, the TGI (HT29 colon) was 0.171 µM and 0.184 µM and the GI50 (RPMI-8226 leukemia) was 0.139 µM and 0.125 µM. For the same compound, the TGI (RPMI-8226 leukemia) was 1 µM and 0.915 µM, the GI50 (SF-268 CNS) was 0.0541 µM and 0.0971 µM and the TGI (SF-268 CNS) was 0.183 µM and 0.322 µM. The GI50 (LOX IMVI melanoma) was less than 0.01 µM, the TGI (LOX IMVI melanoma) was less than 0.01 µM and the GI50 (HOP-62 NSCLC) was 0.367 µM and 0.201 µM. For the same compound, the TGI (HOP-62 NSCLC) was 5.44 µM and 1.72 µM, the GI50 (M14 melanoma) was 0.844 µM and 2.78 µM and the TGI (M14 melanoma) was 2.92 µM and 18.8 µM. The GI50 (COLO 205 colon) was 1.79 µM and 1.22 µM, the TGI (COLO 205 colon) was 11.2 µM and 3.59 µM and the GI50 (U251 CNS) was 0.048 µM and 0.395 µM. The TGI (U251 CNS) was 0.234 µM and 2.2 µM, the GI50 (A549 NSCLC) was 0.4 µM and 0.47 µM and the TGI (A549 NSCLC) was 3.91 µM and 7.22 µM. For the same compound, the GI50 (NCI/ADR-RES ovarian) was 0.083 µM and 0.164 µM, the TGI (NCI/ADR-RES ovarian) was 2.82 µM and 5.55 µM and the GI50 (SF-295 CNS) was 0.0319 µM and < 0.01 µM. The TGI (SF-295 CNS) was 0.0821 µM and < 0.01 µM, the GI50 (SF-539 CNS) was 0.0207 µM and < 0.0155 µM and the TGI (SF-539 CNS) was 0.0458 µM and 0.0317 µM. The GI50 (MOLT-4 leukemia) was 1.16 µM and 1.62 µM, the TGI (MOLT-4 leukemia) was 4 µM and 5 µM and the GI50 (NCI-H23 lung) was 0.0242 µM and < 0.0151 µM. For the same compound, the TGI (NCI-H23 lung) was 0.268 µM and < 0.041 µM, the GI50 (UACC-257 melanoma) was 7.72 µM and 6.45 µM and the TGI (UACC-257 melanoma) was 71.8 µM and > 100 µM. For the same compound, the GI50 (OVCAR-3 ovarian) was 0.0159 µM and 0.0245 µM, the TGI (OVCAR-3 ovarian) was 0.0326 µM and 0.169 µM and the GI50 (OVCAR-5 ovarian) was 0.271 µM and 1.28 µM. The TGI (OVCAR-5 ovarian) was 2.27 µM and 5.79 µM, the GI50 (HOP-92 NSCLC) was 0.0167 µM and < 0.0161 µM and the TGI (HOP-92 NSCLC) was 0.0374 µM and < 0.0253 µM. The GI50 (SNB-75 CNS) was 0.147 µM, the TGI (SNB-75 CNS) was 0.437 µM and the GI50 (SW-620 colon) was 1.25 µM and 2.36 µM. The TGI (SW-620 colon) was 7.44 µM and 12.4 µM, the GI50 (MDA-MB-435) was 4.59 µM and 2.25 µM and the TGI (MDA-MB-435) was 23.9 µM and 10.3 µM. The GI50 (NCI-H460 lung) was 2.38 µM and 2.28 µM, the TGI (NCI-H460 lung) was 9.9 µM and 9.67 µM and the GI50 (HCT-116 colon) was 3.19 µM and 2.9 µM. The TGI (HCT-116 colon) was 13.2 µM and 19 µM, the GI50 (DU-145 prostate) was 0.814 µM and 2.13 µM and the TGI (DU-145 prostate) was 6.55 µM and 15.4 µM. For the same compound, the GI50 (HCT-15 colon) was 1.55 µM and 1.81 µM, the TGI (HCT-15 colon) was greater than 100 µM and the GI50 (UACC-62 melanoma) was 0.762 µM and 1.42 µM. The TGI (UACC-62 melanoma) was 2.36 µM and 4.22 µM, the GI50 (HCC-2998 colon) was 5.6 µM and 3.72 µM and the TGI (HCC-2998 colon) was 29.9 µM and > 65.6 µM. The TGI (RXF 393 renal) was 2.92 µM and 7 µM, the GI50 (A498 renal) was 0.495 µM and 0.593 µM and the TGI (A498 renal) was 1.93 µM and 1.74 µM. The GI50 (TK-10 renal) was 4.55 µM and 2.24 µM, the TGI (TK-10 renal) was 20.9 µM and 8.33 µM and the GI50 (SK-MEL-2 melanoma) was 2.65 µM and 2.22 µM. The TGI (SK-MEL-2 melanoma) was 7.74 µM and 6.01 µM.
